Source: patent US12630523B2, “Isoquinoline derivatives for use as antiviral and antitumour agents” (priority 2021, dated 2026)
Where two headings read alike, the source gives them in different places.

Assays:
Format in all cases: cell-based
[1] = molecular target: T1, HPV16 E7 protein (Human papillomavirus type 16, UniProt P03129); details: CaSki cells; for % Dad: adjusted degradation, CHX steady state set to 100% degradation
T1 construct: endogenous in cells; host or cells: CaSki cells (HPV16-positive cervical carcinoma)
T1 sequence (P03129 whole entry): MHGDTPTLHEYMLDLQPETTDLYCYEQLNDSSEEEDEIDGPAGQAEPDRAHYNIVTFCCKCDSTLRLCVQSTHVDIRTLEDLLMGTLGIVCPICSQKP
Experimental: For intracellular antibody labeling, 0.5×10^6 cells are washed once with 1 ml ice-cold PBS. Cells are centrifuged at 350×g for 5 minutes at 4° C. and then fixed in 1% paraformaldehyde (1 ml/10^6 cells) for 20 minutes at 4° C. Cells are washed with 1 ml ice-cold PBS and centrifuged at 350×g for 5 minutes at 4° C. To permeabilize cells, 100% ice-cold methanol (1 ml/10^6 cells) is added to the cells and incubated for 20 minutes at 4° C. followed by centrifugation at 350×g for 5 minutes at 4° C. Cells are washed with 1 ml ice-cold PBS, centrifuged at 350×g for 5 minutes at 4° C. and resuspended in 0.1% saponin+2% FBS in PBS (ice-cold). Cells are left for 20-30 minutes at room temperature to reduce the background signal and then centrifuged at 350×g for 5 minutes at 4° C. The primary antibody (mAb_HPV16E7-1 (VS13004); concentration 1 μg/μl) is diluted in 0.1% saponin+2% FBS (dilution 0.25 μg/50 μl of incubation buffer per 1×10^6 cells (5 ng/μl)). Cells are incubated with primary antibody for 30 minutes at room temperature, washed with 0.1% saponin+2% FBS and centrifuged at 350×g for 5 minutes at 4° C. The secondary antibody (FITC conjugated goat anti-mouse IgG1-IgM, BD, cat. #555988) is diluted in 0.1% saponin+2% FBS (dilution 1:50). Cells are incubated with secondary antibody for 30 minutes at room temperature, washed once with 0.1% saponin+2% FBS, once with PBS and centrifuged at 350×g for 5 minutes at 4° C.
Cells are resuspended in 700 μl PBS prior to CF analysis with a Beckman Coulter FC 500 MPL, (excitation laser 488 nm). Data analysis is done using the Beckman Coulter software packages MXP for acquisition and CXP for data analysis which includes MFI calculation. Detection of HPV-E7 protein expression is based on morphology back-gating of FL1 histogram (logarithmic scale) with gating for dot plot FS (Forward Scatter) log/SS (Sideward Scatter) log and gating for histograms SS log.
In order to define the level of E7 protein expression and to study the extent of E7 protein steady state level reduction in E7 expressing cells in the presence of various compounds, FC analysis is implemented using the intracellular antibody labeling procedure for monoclonal antibodies to HPV E7. E7 signal intensities are analyzed from the obtained FL1 histograms at logarithmic scale. The FL1 single histogram graph represents the variation in the mean fluorescence intensity (MFI) channel for cells treated with selected compounds compared to cells not incubated with primary antibodies but incubated with secondary, which allows to test for auto-fluorescence, and non-compound treated cells as controls. Non-primary antibody-stained cells are used to set the acquisition parameters to zero. Decrease of the mean fluorescence intensity channel corresponds to a decrease in the expression of HPV16 E7 protein. Degradation of E7 in cells is calculated as percent (%) reduction in MFI(x-Me) using the following formulas: % Drel=(T−C)/T*100; i) relative degradation: % Dad=(T−C)/(T−CHX)*100; ii) adjusted degradation: • Drel=relative degradation, • Dad=adjusted degradation assuming CHX % Drel=100; • T=MFI of non-treated cells; • C=MFI of compound treated cells; • CH=MFI of cycloheximide (CHX) treated cells;
For comparison within one experiment i) the % relative degradation (Drel) is sufficient, whereas for comparison between two or more experiments ii) the adjusted degradation (Dad) is used and CHX steady state is set to a 100% degradation parameter.
1×10^6 freshly seeded CaSki cells (ATCC CRL-7915), are grown in 10 cm diameter cell culture dishes in RPMI1640, 10% FCS medium at 37° C. 5% CO2 overnight and then incubated in the presence of 10 μM Cycloheximide (CHX) 10 μM OC246 or with vehicle alone for four hours at 37° C. 5% CO2. Following this E7 protein is assessed by cytofluorimetric analysis using intracellular HPV16 E7 antibody labeling. […]

[2] = system: CaSki (ATCC CRM-CRL-1550); assay: Monolayer assay using Sulphorhodamine B (SRB) staining, CaSki; details: Homo sapiens, Ca-Ski
Experimental: Various cell culture cells grown as monolayers are harvested from exponential growing cultures after treatment with various OC compounds at different concentrations. For this depending on the cell line, 10.000 to 30.000 cells were plated in 96-well flat-bottom microtiter plates. After a 24 h recovery period to allow cells to resume exponential growth, supernatants are discarded and 100 μl of culture medium (eight control wells/plate) or culture medium with the test compound are added by a liquid handling robotic system (Microlab® Starlet, Hamilton) and treatment continued for 72 hrs. Compounds are applied at 9 concentrations and eight wells/concentration). At least three independent experiments are performed. For SRB staining, cells are fixed with SRB01 (Tab. 5) for 1 h at 4° C. (final concentration of TCA=10%) washed with a plate washer (Hydroflex, Tecan©) for five times with H2O; and stained with 100 μl of SRB02 at room temperature for 10 min following 4 washes in SRB03 and finally 100 μl of developer solution SRB04 for 5 minutes with shaking. Optical density is assessed using a plate-reader (Sunrise, Tecan©) at 540 nm.
Concentrations required for half maximal response of the compound for cell growth inhibition (EC50) is calculated by non-linear regression (log[conc. of inhibitor] versus response (% T/C)) using the analysis software GraphPad Prism®, Prism 5 for windows, version 5.01 (GraphPad Software Inc., CA).

[3] = system: SARS-CoV-2 isolate BetaCov/Belgium/GHB-03021/2020; assay: microbe, parasite or virus in culture; details: 1.25 μM (non-toxic compound concentration), n4; for inhibition at 1.25 µM: Severe acute respiratory syndrome coronavirus 2
[4] = SRB assay from Caski cells, “0” = no activity detected with the concentrations tested, read-out: EC50 mean

| Structure (SMILES) | % Dad [1] [%] | inhibition at 1.25 µM [3] [%] | also measured |
| --- | --- | --- | --- |
| COc1ccc2c(c1)C(=O)N(Cc1ccc(C)cc1)[C@@H](c1ccc(C(F)(F)F)cc1)[C@@H]2C(=O)Nc1cccc(N2CCN(C)CC2)c1 (relative stereo) [OC969] | 66 | – | – |
| CC(=O)Nc1ccc2c(c1)C(=O)N(Cc1ccc(C)cc1)[C@@H](c1ccc(C(F)(F)F)cc1)[C@@H]2C(=O)Nc1cccc(N2CCN(C)CC2)c1 (relative stereo) [OC970] | 20 | 3.03 | EC50 ([2]; read-out: EC50 mean [nM]): 5550 nM |
| COc1cc2c(cc1OC)[C@@H](C(=O)Nc1cccc(N3CCN(C)CC3)c1)[C@H](c1ccc(C(F)(F)F)cc1)N(Cc1ccc(C)cc1)C2=O (relative stereo) [OC971] | 26 | – | – |
| C[C@@H]1C[C@@H]([C@H](O)CC2CC(=O)NC(=O)C2)C(=O)[C@@H](C)C1 [CHX, Cycloheximide, reference compound] | – | – | % Drel (relative degradation) ([1]; 10 μM, four hours): 78.78%; % Dab (adjusted degradation) ([1]; 10 μM, four hours, CHX set to 100): 100%; MFI (mean fluorescence intensity) of E7 signal ([1]; 10 μM, four hours, vehicle T 8.06): 1.71 |
| O=C(NOCC1CC1)c1ccc(F)c(F)c1Nc1ccc(I)cc1Cl [CI-1040, 2-(2-Chloro-4-iodophenylamino)-N-(cyclopropylmethoxy)-3,4-difluorobenzamide, reference compound] | – | 146 | – |
| COc1ccc2cc1Oc1ccc(cc1)C[C@H]1c3c(cc4c(c3Oc3cc5c(cc3OC)CCN(C)[C@@H]5C2)OCO4)CCN1C [Cepharantin, reference compound] | – | – | % Inhibition [3]: 2.32% |
| c1c2c(cc3c1OCO3)-c1cc3ccc4c(c3c[n+]1CC2)OCO4 [Coptisin, reference compound] | – | – | % Inhibition [3]: 98.97% |
| CS(=O)(=O)O.Cc1c(O)cccc1C(=O)N[C@@H](CSc1ccccc1)[C@H](O)CN1C[C@H]2CCCC[C@H]2C[C@H]1C(=O)NC(C)(C)C [Neifinavir-Mesylat, reference compound] | – | – | % Inhibition [3]: 9.49% |
| Cc1ccc(CN2C(=O)c3ccccc3C(C(=O)Nc3cccc(N4CCN(C)CC4)c3)C2c2ccc(Cl)c(Cl)c2)cc1 (centres unmarked) [OC245] | 0 | – | – |
| Cc1ccc(CN2C(=O)c3ccccc3C(C(=O)Nc3cccc(N4CCN(C)CC4)c3)C2c2ccc(Br)cc2)cc1 (centres unmarked) [OC247] | 6 | 30.6 | EC50 ([2]; read-out: EC50 mean [nM]): 6730 nM |
| Cc1ccc(CN2C(=O)c3ccccc3C(C(=O)NCCN(C)C)C2c2ccc(Cl)cc2)cc1 (centres unmarked) [OC250] | 19 | – | – |
| Cc1ccc(CN2C(=O)c3ccccc3C(C(=O)NCCN3CCCC3)C2c2ccc(Cl)cc2)cc1 (centres unmarked) [OC251] | 1 | – | – |
| COCCNC(=O)C1c2ccccc2C(=O)N(Cc2ccc(C)cc2)C1c1ccc(Cl)cc1 (centres unmarked) [OC252] | 0 | – | – |
| Cc1ccc(CN2C(=O)c3ccccc3C(C(=O)NCc3ccc(N(C)C)cc3)C2c2ccc(Cl)cc2)cc1 (centres unmarked) [OC254] | 16 | – | – |
| Cc1ccc(CN2C(=O)c3ccccc3C(C(=O)NCc3cccnc3)C2c2ccc(Cl)cc2)cc1 (centres unmarked) [OC255] | 2 | – | – |
| Cc1ccc(CN2C(=O)c3ccccc3C(C(=O)N3CCN(C)CC3)C2c2ccc(Cl)cc2)cc1 (centres unmarked) [OC256] | 8 | – | – |
| Cc1ccc(CN2C(=O)c3ccccc3C(C(=O)N3CCN(C=O)CC3)C2c2ccc(Cl)cc2)cc1 (centres unmarked) [OC258] | 0 | – | – |
| Cc1ccc(CN2C(=O)c3ccccc3C(C(=O)NCCN(C)C)C2c2ccc(C(F)(F)F)cc2)cc1 (centres unmarked) [OC377] | 35 | 81.6 | EC50 [2, 4]: 6750 nM |
| CN(C)CCNC(=O)C1c2ccccc2C(=O)N(Cc2ccc(C(F)(F)F)cc2)C1c1ccc(C(F)(F)F)cc1 (centres unmarked) [OC378] | 48 | 43.4 | EC50 [2, 4]: 5690 nM |
| Cc1ccc(C2C(C(=O)NCCN(C)C)c3ccccc3C(=O)N2Cc2ccc(C(F)(F)F)cc2)cc1 (centres unmarked) [OC379] | 26 | 33.4 | EC50 [2, 4]: 11900 nM |
| CN(C)CCNC(=O)C1c2ccccc2C(=O)N(Cc2ccc(N)cc2)C1c1ccc(C(F)(F)F)cc1 (centres unmarked) [OC380] | 3 | 72.6 | EC50 [2, 4]: 11400 nM |
| Cc1ccc(CN2C(=O)c3ccccc3C(C(=O)NCCN(C)C)C2c2ccc(C(F)(F)F)nc2)cc1 (centres unmarked) [OC381] | 41 | 43.7 | EC50 ([2]; read-out: EC50 mean [nM]): 17500 nM |
| CN(C)CCNC(=O)C1c2ccccc2C(=O)N(Cc2ccc(N(C)C)cc2)C1c1ccc(C(F)(F)F)cc1 (centres unmarked) [OC382] | – | 41.2 | EC50 [2, 4]: 2300 nM |
| CO[C@H]1C[C@@H]2CC[C@@H](C)[C@@](O)(O2)C(=O)C(=O)N2CCCC[C@H]2C(=O)O[C@H]([C@H](C)C[C@@H]2CC[C@@H](O)[C@H](OC)C2)CC(=O)[C@H](C)/C=C(\C)[C@@H](O)[C@@H](OC)C(=O)[C@H](C)C[C@H](C)/C=C/C=C/C=C/1C [Rapamycin, reference compound] | – | 21.1 | – |
